Molecular target: T1, Protein kinase C zeta type (Homo sapiens, UniProt Q05513)
T1 sequence (Q05513 whole entry): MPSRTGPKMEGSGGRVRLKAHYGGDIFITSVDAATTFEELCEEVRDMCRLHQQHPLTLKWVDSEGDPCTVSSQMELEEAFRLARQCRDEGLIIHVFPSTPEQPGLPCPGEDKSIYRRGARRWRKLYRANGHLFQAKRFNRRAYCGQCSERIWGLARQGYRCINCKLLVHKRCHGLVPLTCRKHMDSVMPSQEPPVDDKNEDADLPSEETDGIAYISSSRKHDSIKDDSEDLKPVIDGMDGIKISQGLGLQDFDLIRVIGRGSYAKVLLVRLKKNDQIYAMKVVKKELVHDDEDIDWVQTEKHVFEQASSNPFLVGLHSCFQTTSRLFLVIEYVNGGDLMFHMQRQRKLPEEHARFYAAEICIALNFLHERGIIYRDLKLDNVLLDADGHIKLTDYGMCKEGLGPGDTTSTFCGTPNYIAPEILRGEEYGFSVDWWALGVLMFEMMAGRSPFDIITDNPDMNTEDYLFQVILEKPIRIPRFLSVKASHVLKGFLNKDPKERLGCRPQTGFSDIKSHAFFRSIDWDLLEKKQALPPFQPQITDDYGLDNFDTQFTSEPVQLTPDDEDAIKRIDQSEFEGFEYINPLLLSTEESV
Experiment: PKC Enzyme Assay
Settings: pH 7.5; 23 °C
Method: Protein kinase C (PKC), zeta activity was measured by following the phosphorylation of a biotinylated peptide substrate in the presence of ATP using AlphaScreen technology (Perkin Elmer, Waltham, MA). The AlphaScreen assay format relies on bringing a streptavidin coated donor bead and an IgG-protein A acceptor bead into proximity through the interaction between biotinylated phosphorylated peptide and a phospho-specific antibody to the peptide. Upon excitation of the donor bead at 680 nm, excited state singlet oxygen is produced and diffuses to acceptor beads in close proximity (200 nm), activating a cascade of fluorophores resulting in emission between 520-620 nm. Kinase activity is quantified through the evaluation of this emission signal. Compounds are evaluated as potential inhibitors of the PKC kinase activity by measuring their effects on the phosphorylation of the peptide substrate. IC50 value determinations were made for potential inhibitors by testing compounds at 12 concentrations in three-fold serial dilutions with each concentration tested in triplicate. Reactions were carried out for 60 minutes at room temperature. Reactions were then quenched by addition of stop solution. […] Plates were then read on a Fusion reader after an overnight equilibrium at room temperature.

| IC50 | SMILES |
| --- | --- |
| 6.84 µM | CN1CCN(c2cccc3[nH]c(-c4n[nH]c5cc(-c6ccc7ncccc7c6)ccc45)nc23)CC1 [indazole-benzimidazole, 23] |
| 3.02 µM | CN1CCN(c2cccc3[nH]c(-c4n[nH]c5cc(-c6ccc7ccoc7c6)ccc45)nc23)CC1 [indazole-benzimidazole, 25] |

— BindingDB's records for doi:10.1016/j.bmcl.2008.11.105 (Pfizer, 2009)
